Test results reported in paper PMC6592956, “Characterization of Porcine Hepatic and Intestinal Drug Metabolizing CYP450: Comparison with Human Orthologues from A Quantitative, Activity and Selectivity Perspective” (Scientific Reports, 2019).
Marks after values point to notes of the source that are not given here.

Experiments:
CYP2C [1] = system: T1, CYP2C; assay: Group mean of log10 Km (Km in µM) for porcine hepatic microsomes from 8 male pigs, probe metabolism at 37 °C, LC-MS/MS.; assay type: biochemical, pig liver microsomes; conditions: n = 8
T1 construct: native enzymes in hepatic or duodenal microsomes

CYP2C [2] = system: T1, CYP2C; assay: Group mean of log10 Km (Km in µM) for porcine hepatic microsomes from 8 female pigs, probe metabolism at 37 °C, LC-MS/MS.; assay type: biochemical, pig liver microsomes; conditions: n = 8
[3] = system: porcine intestinal CYP450 enzymes; conditions: intestinal versus hepatic microsomes
Description: (§1) Intestinal microsomes were incubated as described above for hepatic microsomes. […] Each activity measurement (hepatic and intestinal) was performed in triplicate and data are present [...

porcine CYP450 = conditions: outcome of general decision tree, Figure 4
[4] = system: porcine intestinal CYP450 enzymes; assay: in vitro; conditions: pig
Description: as §1

[5] = system: hepatic CYP450 abundancies; assay: Pearson correlation between hepatic CYP450 abundancies and probe activities
CYP2C9/19 = conditions: cited from earlier work
Description: The inhibitors used were α-NFV, 8-MPS, KET, SFZ, QND, and DDC for CYP1A/2 A, CYP2A, CYP3A, CYP2C, CYP2D, and CYP2E1, respectively. […] All incubations were performed in triplicate.

SMILES: CCCCNC(=O)NS(=O)(=O)c1ccc(C)cc1 [TB, tolbutamide]
- log_Km, male (CYP2C [1]): 3,0641
- log_Km, female (CYP2C [2]): 3,3239
- Vmax in intestinal microsomes as % of the hepatic Vmax [3]: 2%
- Enzyme involvement: Low affinity (porcine CYP450): CYP2C, CYP3A
- Km at 10 min ([4]; duodenal microsomes): 1410 µM
- Pearson's correlation coefficient, TB activity vs hepatic CYP2C33 abundance ([5]; level 1 (TB 5.00 µM)): 0.53
- Pearson's correlation coefficient, TB activity vs hepatic CYP2C49 abundance ([5]; level 1 (TB 5.00 µM)): 0.64*
- Pearson's correlation coefficient, TB activity vs hepatic CYP2C33 abundance ([5]; level 2 (TB 10.0 µM)): 0.55
- Pearson's correlation coefficient, TB activity vs hepatic CYP2C49 abundance ([5]; level 2 (TB 10.0 µM)): 0.65*
- Pearson's correlation coefficient, TB activity vs hepatic CYP2C33 abundance ([5]; level 3 (TB 50.0 µM)): 0.62*
- Pearson's correlation coefficient, TB activity vs hepatic CYP2C49 abundance ([5]; level 3 (TB 50.0 µM)): 0.68*
- Pearson's correlation coefficient, TB activity vs hepatic CYP2C33 abundance ([5]; level 4 (TB 100 µM)): 0.62*
- Pearson's correlation coefficient, TB activity vs hepatic CYP2C49 abundance ([5]; level 4 (TB 100 µM)): 0.71*
- Pearson's correlation coefficient, TB activity vs hepatic CYP2C33 abundance ([5]; level 5 (TB 200 µM)): 0.62*
- Pearson's correlation coefficient, TB activity vs hepatic CYP2C49 abundance ([5]; level 5 (TB 200 µM)): 0.69*
- Pearson's correlation coefficient, TB activity vs hepatic CYP2C33 abundance ([5]; level 6 (TB 400 µM)): 0.61
- Pearson's correlation coefficient, TB activity vs hepatic CYP2C49 abundance ([5]; level 6 (TB 400 µM)): 0.72*

SMILES: CCOc1ccc(NC(C)=O)cc1 [PH, Phenacetin]
- Km at 10 min ([4]; duodenal microsomes): 144 µM
- Km at 10 min ([4]; ileal microsomes): 189 µM
- Km at 10 min ([4]; jejunal microsomes): 182 µM
- Pearson's correlation coefficient, PH activity vs hepatic CYP3A46 abundance ([5]; level 6 (PH 200 µM)): 0.51

SMILES: Nc1ccc(S(=O)(=O)Nc2ccnn2-c2ccccc2)cc1 [SFZ, sulphaphenazole]
- Ki (CYP2C9/19): 120 to 700 nM

SMILES: COc1ccc2c(c1)[C@]13CCCC[C@@H]1[C@H](C2)N(C)CC3 [DXM, Dextromethorphan]
- Enzyme involvement: High affinity (porcine CYP450): CYP2D25
- Enzyme involvement: Low affinity (porcine CYP450): CYP3A
- Km at 10 min ([4]; Duodenum Km, duodenal microsomes, pool of 16 pigs, n=3, mean (SD)): 31.5 µM
- Pearson's correlation coefficient, DXM activity vs hepatic CYP2C33 abundance ([5]; level 1 (DXM 0.10 µM)): 0.59
- Pearson's correlation coefficient, DXM activity vs hepatic CYP2E1 abundance ([5]; level 1 (DXM 0.10 µM)): 0.55
- Pearson's correlation coefficient, DXM activity vs hepatic CYP3A46 abundance ([5]; level 1 (DXM 0.10 µM)): 0.59
- Pearson's correlation coefficient, DXM activity vs hepatic CYP2C33 abundance ([5]; level 2 (DXM 0.50 µM)): 0.65*
- Pearson's correlation coefficient, DXM activity vs hepatic CYP2D25 abundance ([5]; level 2 (DXM 0.50 µM)): 0.55
- Pearson's correlation coefficient, DXM activity vs hepatic CYP2E1 abundance ([5]; level 2 (DXM 0.50 µM)): 0.57
- Pearson's correlation coefficient, DXM activity vs hepatic CYP3A29 abundance ([5]; level 2 (DXM 0.50 µM)): 0.52
- Pearson's correlation coefficient, DXM activity vs hepatic CYP3A46 abundance ([5]; level 2 (DXM 0.50 µM)): 0.65*
- Pearson's correlation coefficient, DXM activity vs hepatic CYP1A2 abundance ([5]; level 3 (DXM 1.00 µM)): 0.54
- Pearson's correlation coefficient, DXM activity vs hepatic CYP2C33 abundance ([5]; level 3 (DXM 1.00 µM)): 0.65*
- Pearson's correlation coefficient, DXM activity vs hepatic CYP2D25 abundance ([5]; level 3 (DXM 1.00 µM)): 0.57
- Pearson's correlation coefficient, DXM activity vs hepatic CYP2E1 abundance ([5]; level 3 (DXM 1.00 µM)): 0.60
- Pearson's correlation coefficient, DXM activity vs hepatic CYP3A29 abundance ([5]; level 3 (DXM 1.00 µM)): 0.56
- Pearson's correlation coefficient, DXM activity vs hepatic CYP3A46 abundance ([5]; level 3 (DXM 1.00 µM)): 0.73*
- Pearson's correlation coefficient, DXM activity vs hepatic CYP1A2 abundance ([5]; level 4 (DXM 5.00 µM)): 0.56
- Pearson's correlation coefficient, DXM activity vs hepatic CYP2C33 abundance ([5]; level 4 (DXM 5.00 µM)): 0.70*
- Pearson's correlation coefficient, DXM activity vs hepatic CYP2D25 abundance ([5]; level 4 (DXM 5.00 µM)): 0.63*
- Pearson's correlation coefficient, DXM activity vs hepatic CYP2E1 abundance ([5]; level 4 (DXM 5.00 µM)): 0.56
- Pearson's correlation coefficient, DXM activity vs hepatic CYP3A29 abundance ([5]; level 4 (DXM 5.00 µM)): 0.58
- Pearson's correlation coefficient, DXM activity vs hepatic CYP3A46 abundance ([5]; level 4 (DXM 5.00 µM)): 0.78*
- Pearson's correlation coefficient, DXM activity vs hepatic CYP1A2 abundance ([5]; level 5 (DXM 20.0 µM)): 0.55
- Pearson's correlation coefficient, DXM activity vs hepatic CYP2C33 abundance ([5]; level 5 (DXM 20.0 µM)): 0.70*
- Pearson's correlation coefficient, DXM activity vs hepatic CYP2D25 abundance ([5]; level 5 (DXM 20.0 µM)): 0.63*
- Pearson's correlation coefficient, DXM activity vs hepatic CYP2E1 abundance ([5]; level 5 (DXM 20.0 µM)): 0.52
- Pearson's correlation coefficient, DXM activity vs hepatic CYP3A29 abundance ([5]; level 5 (DXM 20.0 µM)): 0.58
- Pearson's correlation coefficient, DXM activity vs hepatic CYP3A46 abundance ([5]; level 5 (DXM 20.0 µM)): 0.75*
- Pearson's correlation coefficient, DXM activity vs hepatic CYP1A2 abundance ([5]; level 6 (DXM 100 µM)): 0.54
- Pearson's correlation coefficient, DXM activity vs hepatic CYP2C33 abundance ([5]; level 6 (DXM 100 µM)): 0.67*
- Pearson's correlation coefficient, DXM activity vs hepatic CYP2D25 abundance ([5]; level 6 (DXM 100 µM)): 0.66*
- Pearson's correlation coefficient, DXM activity vs hepatic CYP2E1 abundance ([5]; level 6 (DXM 100 µM)): 0.54
- Pearson's correlation coefficient, DXM activity vs hepatic CYP3A29 abundance ([5]; level 6 (DXM 100 µM)): 0.59
- Pearson's correlation coefficient, DXM activity vs hepatic CYP3A46 abundance ([5]; level 6 (DXM 100 µM)): 0.74*
- Correlation (r) of CYP2D25 with DXM-O-demethylation ([5]; range over concentration levels): 0.55–0.66
